Data on 7 cell lines can be found in the supplement of paper PMC10307832.

Common to all, as to experiment: relative viability (nuclei count vs DMSO), 5 days (fraction); higher = more cells survive
Compound in assay [1]: CN(C)C[C@@H]1CCn2cc(c3ccccc32)C2=C(C(=O)NC2=O)c2cn(c3ccccc23)CCO1 [Ruboxistaurin] + Cc1cc(Nc2cc(N3CCN(C)CC3)nc(Sc3ccc(NC(=O)C4CC4)cc3)n2)n[nH]1 [Tozasertib] (partner 0.1 µM)
In short, it runs like this: (§1)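 The day after seeding in 1536-well plates, lung cancer cell lines were treated by pin tool with a single drug, or with a fixed anchor-drug dose together with five library-drug doses (not always all listed) in √10 steps. After 5 days, a combined fix-and-stain solution (final 0.05% Triton X-100, 1% formaldehyde, 1 ug/ml Hoechst) was added. Nuclei counted on 4× images gave relative viability as treated counts over vehicle counts, reported as the median of duplicate plates.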

Compound in assay [2]: CN(C)C[C@@H]1CCn2cc(c3ccccc32)C2=C(C(=O)NC2=O)c2cn(c3ccccc23)CCO1 [Ruboxistaurin] + CC(=O)c1c(C)c2cnc(Nc3ccc(N4CCNCC4)cn3)nc2n(C2CCCC2)c1=O [Palbociclib] (partner 0.5 µM)
Put shortly:
as §1

Compound in assay [3]: CN(C)C[C@@H]1CCn2cc(c3ccccc32)C2=C(C(=O)NC2=O)c2cn(c3ccccc23)CCO1 [Ruboxistaurin] + CC(C)C[C@H](NC(=O)[C@H](Cc1ccccc1)NC(=O)c1cnccn1)B(O)O [Bortezomib] (partner 0.002 µM)
Put shortly:
as §1

Compound in assay [4]: CN(C)C[C@@H]1CCn2cc(c3ccccc32)C2=C(C(=O)NC2=O)c2cn(c3ccccc23)CCO1 [Ruboxistaurin] + Nc1nc2[nH]cc(CCc3ccc(C(=O)N[C@@H](CCC(=O)O)C(=O)O)cc3)c2c(=O)[nH]1 [Pemetrexed] (partner 0.2 µM)
In short, it runs like this:
as §1

Compound in the assay “Ruboxistaurin + OSI-027”: CN(C)C[C@@H]1CCn2cc(c3ccccc32)C2=C(C(=O)NC2=O)c2cn(c3ccccc23)CCO1 [Ruboxistaurin] + COc1cccc2cc(-c3nc([C@H]4CC[C@H](C(=O)O)CC4)n4ncnc(N)c34)[nH]c12 [OSI-027] (partner 0.5 µM)
Put shortly:
as §1

HCC-366: the relative viability in assay [1] (first compound 0.08 µM) is 0.0941; in assay [1] (first compound 0.8 µM), 0.0617; in assay [1] (first compound 2.53 µM), 0.084; in assay [1] (first compound 8 µM) it was 0.0522; in assay [2] (first compound 0.08 µM), 0.401; in assay [2] (first compound 0.8 µM), 0.354. In addition, the relative viability in assay [2] (first compound 2.53 µM) amounted to 0.392; in assay [2] (first compound 8 µM), 0.328; in assay [3] (first compound 0.08 µM), 1.05; in assay [3] (first compound 0.8 µM) it was 1.05; in assay [3] (first compound 2.53 µM), 1.05; in assay [3] (first compound 8 µM) it was 0.986. Besides, the relative viability in assay [4] (first compound 0.08 µM) came to 0.181; in assay [4] (first compound 0.8 µM), 0.182; in assay [4] (first compound 2.53 µM), 0.158; in assay [4] (first compound 8 µM), 0.209; with Ruboxistaurin + OSI-027 (first compound 0.08 µM), 0.965; in the assay with Ruboxistaurin + OSI-027 (first compound 0.8 µM), 0.675. In addition, the relative viability turned out to be 0.869 in the assay with Ruboxistaurin + OSI-027 (first compound 2.53 µM) and 0.411 with Ruboxistaurin + OSI-027 (first compound 8 µM).
For the cell line NCI-H1651, the relative viability in assay [1] (first compound 0.08 µM) stood at 0.922; in assay [1] (first compound 0.8 µM), 0.639; in assay [1] (first compound 2.53 µM) it was 0.8; in assay [1] (first compound 8 µM) it was 0.521; in assay [2] (first compound 0.08 µM), 0.528; in assay [2] (first compound 0.8 µM) it was 0.482. The relative viability in assay [2] (first compound 2.53 µM) was determined as 0.531; in assay [2] (first compound 8 µM), 0.494; in assay [3] (first compound 0.08 µM) it was 0.975; in assay [3] (first compound 0.8 µM), 0.877; in assay [3] (first compound 2.53 µM) it was 0.942; in assay [3] (first compound 8 µM), 0.958. The relative viability in assay [4] (first compound 0.08 µM) was determined as 0.612; in assay [4] (first compound 0.8 µM), 0.586; in assay [4] (first compound 2.53 µM) it was 0.585; in assay [4] (first compound 8 µM), 0.528; with Ruboxistaurin + OSI-027 (first compound 0.08 µM) it was 0.779; with Ruboxistaurin + OSI-027 (first compound 0.8 µM) it was 0.611. The relative viability with Ruboxistaurin + OSI-027 (first compound 2.53 µM) was determined as 0.653; with Ruboxistaurin + OSI-027 (first compound 8 µM), 0.566.
Turning to LC-2-ad, the relative viability is 0.55 in assay [1] (first compound 0.08 µM); 0.45 in assay [1] (first compound 0.8 µM); 0.476 in assay [1] (first compound 2.53 µM); 0.475 in assay [1] (first compound 8 µM); 0.469 in assay [2] (first compound 0.08 µM); 0.424 in assay [2] (first compound 0.8 µM). Besides, the relative viability is 0.45 in assay [2] (first compound 2.53 µM); 0.532 in assay [2] (first compound 8 µM); 1.17 in assay [3] (first compound 0.08 µM); 0.929 in assay [3] (first compound 0.8 µM); 1.15 in assay [3] (first compound 2.53 µM); 1.06 in assay [3] (first compound 8 µM). The relative viability was determined as 0.259 in assay [4] (first compound 0.08 µM); 0.284 in assay [4] (first compound 0.8 µM); 0.285 in assay [4] (first compound 2.53 µM); 0.282 in assay [4] (first compound 8 µM); 0.935 with Ruboxistaurin + OSI-027 (first compound 0.08 µM); 0.842 with Ruboxistaurin + OSI-027 (first compound 0.8 µM). Moreover, the relative viability with Ruboxistaurin + OSI-027 (first compound 2.53 µM) turned out to be 0.86; with Ruboxistaurin + OSI-027 (first compound 8 µM) it was 0.781.
Turning to HCC-827, the relative viability in assay [1] (first compound 0.08 µM) is 0.43; in assay [1] (first compound 0.8 µM), 0.393; in assay [1] (first compound 2.53 µM), 0.423; in assay [1] (first compound 8 µM), 0.423; in assay [2] (first compound 0.08 µM), 0.529; in assay [2] (first compound 0.8 µM) it was 0.478. The relative viability in assay [2] (first compound 2.53 µM) is 0.621; in assay [2] (first compound 8 µM), 0.489; in assay [3] (first compound 0.08 µM), 1.01; in assay [3] (first compound 0.8 µM), 1.01; in assay [3] (first compound 2.53 µM) it was 1.06; in assay [3] (first compound 8 µM), 1.14. Besides, the relative viability came out at 0.265 in assay [4] (first compound 0.08 µM); 0.252 in assay [4] (first compound 0.8 µM); 0.268 in assay [4] (first compound 2.53 µM); 0.28 in assay [4] (first compound 8 µM); 0.889 with Ruboxistaurin + OSI-027 (first compound 0.08 µM); 0.82 in the assay with Ruboxistaurin + OSI-027 (first compound 0.8 µM). Also, the relative viability in the assay with Ruboxistaurin + OSI-027 (first compound 2.53 µM) amounted to 0.772; with Ruboxistaurin + OSI-027 (first compound 8 µM), 0.605.
For the cell line SK-LU-1, the relative viability in assay [1] (first compound 0.08 µM) stood at 0.414; in assay [1] (first compound 0.8 µM) it was 0.33; in assay [1] (first compound 2.53 µM), 0.323; in assay [1] (first compound 8 µM), 0.265; in assay [2] (first compound 0.08 µM), 0.427; in assay [2] (first compound 0.8 µM), 0.342. Moreover, the relative viability in assay [2] (first compound 2.53 µM) was found to be 0.429; in assay [2] (first compound 8 µM) it was 0.381; in assay [3] (first compound 0.08 µM) it was 1.37; in assay [3] (first compound 0.8 µM), 1.03; in assay [3] (first compound 2.53 µM), 1.22; in assay [3] (first compound 8 µM), 1.07. The relative viability in assay [4] (first compound 0.08 µM) worked out at 0.944; in assay [4] (first compound 0.8 µM), 0.913; in assay [4] (first compound 2.53 µM), 1.12; in assay [4] (first compound 8 µM) it was 0.954; with Ruboxistaurin + OSI-027 (first compound 0.08 µM), 0.386; with Ruboxistaurin + OSI-027 (first compound 0.8 µM), 0.322. The relative viability with Ruboxistaurin + OSI-027 (first compound 2.53 µM) was 0.307; with Ruboxistaurin + OSI-027 (first compound 8 µM) it was 0.264.
For the cell line COR-L 105, the relative viability amounted to 0.385 in assay [1] (first compound 0.08 µM); 0.367 in assay [1] (first compound 0.8 µM); 0.304 in assay [1] (first compound 2.53 µM); 0.254 in assay [1] (first compound 8 µM); 0.418 in assay [2] (first compound 0.08 µM); 0.389 in assay [2] (first compound 0.8 µM). Further, the relative viability in assay [2] (first compound 2.53 µM) was found to be 0.411; in assay [2] (first compound 8 µM), 0.416; in assay [3] (first compound 0.08 µM), 0.906; in assay [3] (first compound 0.8 µM), 0.651; in assay [3] (first compound 2.53 µM), 0.823; in assay [3] (first compound 8 µM), 0.685. In addition, the relative viability in assay [4] (first compound 0.08 µM) came to 1.3; in assay [4] (first compound 0.8 µM), 0.912; in assay [4] (first compound 2.53 µM) it was 1.05; in assay [4] (first compound 8 µM), 1.26; with Ruboxistaurin + OSI-027 (first compound 0.08 µM), 0.881; with Ruboxistaurin + OSI-027 (first compound 0.8 µM), 0.565. Further, the relative viability in the assay with Ruboxistaurin + OSI-027 (first compound 2.53 µM) turned out to be 0.62; in the assay with Ruboxistaurin + OSI-027 (first compound 8 µM), 0.443.
For the cell line LOU-NH91, the relative viability in assay [1] (first compound 0.08 µM) turned out to be 0.744; in assay [1] (first compound 0.8 µM) it was 0.509; in assay [1] (first compound 2.53 µM), 0.674; in assay [1] (first compound 8 µM) it was 0.76; in assay [2] (first compound 0.08 µM), 0.536; in assay [2] (first compound 0.8 µM), 0.518. Further, the relative viability in assay [2] (first compound 2.53 µM) turned out to be 0.52; in assay [2] (first compound 8 µM) it was 0.571; in assay [3] (first compound 0.08 µM), 0.475; in assay [3] (first compound 0.8 µM), 0.473; in assay [3] (first compound 2.53 µM) it was 0.443; in assay [3] (first compound 8 µM), 0.457. The relative viability in assay [4] (first compound 0.08 µM) came to 0.398; in assay [4] (first compound 0.8 µM), 0.405; in assay [4] (first compound 2.53 µM) it was 0.407; in assay [4] (first compound 8 µM) it was 0.434; with Ruboxistaurin + OSI-027 (first compound 0.08 µM), 0.748; in the assay with Ruboxistaurin + OSI-027 (first compound 0.8 µM), 0.629. Moreover, the figures for the relative viability in the assay with Ruboxistaurin + OSI-027 (first compound 2.53 µM) and with Ruboxistaurin + OSI-027 (first compound 8 µM) were 0.663 and 0.676, respectively.
